# Read-outs that look alike come from different tables or passages of the source.
# Assay: comparative solubility study, saturated solutions at 25° C., assayed by liquid chromatography
# Assay type: physicochemical
# Experimental: The media studied are water, ethanol and a water/polyethylene glycol 400 mixture (70/30 v/v).
# The solubility measurements were made at 25° C. after stirring of the saturated solutions for 3 or 5 hours.
# After achieving conditions under which the products solubilized in water are not adsorbed on certain filters, the solutions are filtered and then assayed by liquid chromatography (column μmBondapak C18, eluent acetonitrile/trifluoroacetic acid, detection at 254 nm, flow rate 1 ml/minute).
# [1] = organic solvent or mixture, ethanol, stirring of saturated solution for 3 or 5 hours, read-out: solubility in ethanol
# [2] = water, stirring of saturated solution for 3 or 5 hours, read-out: solubility in water
# [3] = water/peg 400 70/30, organic solvent or mixture, water/polyethylene glycol 400 mixture (70/30 v/v), stirring for 3 or 5 hours, read-out: solubility in water/PEG
solubility [1] [µg/mL],solubility [2] [µg/mL],solubility [3] [µg/mL],Compound
10300,1.7,30,"COc1cccc(OC)c1-c1cc(C(=O)NC2(C(=O)O)C3CC4CC(C3)CC2C4)nn1-c1cc[n+]([O-])c2cc(Cl)ccc12 (stereo not drawn) [EXAMPLE 2, 2-{[1-(1-oxido-7-chloroquinolin-4-yl)-5-(2,6-dimethoxyphenyl)-pyrazol-3-yl]carbonylamino}adamantane-2-carboxylic acid]"
1300,0.4,< 1,"COc1cccc(OC)c1-c1cc(C(=O)NC2(C(=O)O)C3CC4CC(C3)CC2C4)nn1-c1ccnc2cc(Cl)ccc12 (stereo not drawn) [SR48692, 2-{[1-(7-Chloroquinolin-4-yl)-5-(2,6-dimethoxyphenyl)pyrazol-3-yl]carbonylamino}adamantane-2-carboxylic acid]"

# — patent publication US5561234A, “1-(7-chloroquinolin-4-yl)pyrazole-3-carboxamide N-oxide derivatives, method of preparing them, and their pharmaceutical compositions” (Sanofi, priority 1994, dated 1996)
